The subject of assay [1] is THP-1 (acute monocytic leukemia) cells. The experiment in a line: MTT antiproliferative assay, THP-1. It counts as cell-based, human. To be noted: Homo sapiens, THP-1; 72 h, MTT, mean ± SD of three independent experiments; read-out: GI50 THP1. On the procedure:
(§1) The growth inhibition activity was assessed according to the slightly modified procedure performed at the National Cancer Institute, Developmental Therapeutics Program.
(§2) The examined compounds were dissolved in DMSO (1 × 10^−2 M). The experiments were carried out on seven human tumor cell lines and a normal cell line. The following cell lines were used: HeLa (human cervical adenocarcinoma; purchased from ATCC), CaCo-2 (human colorectal adenocarcinoma), MCF-7 (human breast adenocarcinoma), CCRF-CEM (human acute lymphoblastic leukemia), Hut78 (T-cell lymphoma), THP-1 (acute monocytic leukemia), Burkitt lymphoma (Raji), and MDCK1 (Madine–Darby canine kidney). The MDCK1 cells were used between 24 and 26 passages.
(§3) The adherent cells were cultured in Dulbecco’s modified Eagle medium—DMEM (Gibco, Termo Fisher Scientific Inc., Leicestershire, England, UK), supplemented with 10% heat-inactivated fetal bovine serum (FBS, Gibco, Termo Fisher Scientific Inc., Leicestershire, England, UK), 2 mM glutamine, and 100U/0.1mg penicillin/streptomycin. The cells in suspension were cultured in RPMI 1640 (Gibco, Termo Fisher Scientific Inc., Leicestershire, England, UK) medium, supplemented with 10% FBS (Gibco, Termo Fisher Scientific Inc., Leicestershire, England, UK), 2 mM glutamine, 1 mM sodium pyruvate, and 10 mM HEPES. The cells were grown in a humidified atmosphere under the conditions of 37 °C/5% of CO2 gas in the CO2 incubator (IGO 150 CELLlife^TM, JOUAN, Thermo Fisher Scientific, Waltham, MA, USA).
(§4) The adherent cells (HeLa, CaCo-2, MCF-7, and MDCK-1) were plated in 96-well flat bottom plates (Greiner, Frickenhausen, Austria) at a concentration of 2 × 10^4 cells/mL. The suspension cells (Raji, THP-1, CCRF-CEM and Hut78) were plated in 96-well microtiter plates (Sarstead, Newton, NC, USA) at a concentration of 1 × 10^5 cells/mL. Twenty-four hours later, the cells were treated with test agents in […] and incubated for a further 72 h. The working dilutions were freshly prepared on the day of testing. The solvent was also tested for eventual inhibitory activity by adjusting its concentration to be the same as in the working concentrations. After 72 h of incubation, the cell growth rate was evaluated by performing the MTT assay, which detects dehydrogenase activity in viable cells. For this purpose, upon completion of the incubation period, the growth medium was discarded and 50 μL of MTT was added to each well at a concentration of 5 mg/mL. After four hours of incubation at 37 °C, the water insoluble MTT-formazan crystals were dissolved in 150 μL of dimethyl-sulfoxide (DMSO) for the adherent cells and in 10% SDS with 0.01 mol/L HCl for the cells grown in suspension. The absorbance (OD, optical density) was measured on a microplate reader (iMark, BIO RAD, Hercules, CA, USA) at 595 nm.
(§5) The percentage of live cells was calculated as follows: % = OD (sample) − OD (background)/OD (control) − OD (background) × 100.
(§6) The optical density (OD) of the background for the adherent cells is the OD of the MTT solution and DMSO; the OD (background) for the suspension cells is the OD of the culture medium with MTT and 10% SDS with 0.01 mol/L HCl; the OD (control) is the OD of the cells grown without the tested compounds.
(§7) The calculation of the GI50 value curves and QC analysis was performed using the Excel tools and GraphPadPrism software (La Jolla, CA, USA), v. 5.03. Briefly, individual concentration effect curves are generated by plotting the logarithm of the concentration of the tested compounds (X) vs. the corresponding percent inhibition values (Y) using the least squares fit. The best-fit GI50 values are calculated using log (inhibitor) versus normalized response—variable slope equation, where Y Ľ 100/(1 ţ 10 ((LogIC50 _ X) × HillSlope)). The QC criteria parameters (Z0, S:B, R2, HillSlope) were checked for every GI50 curve.

Assay [2] concerns Hut78 (T-cell lymphoma) cells. The experiment in a line: MTT antiproliferative assay, HuT78. It counts as cell-based, human. Particulars: Homo sapiens, HuT78; 72 h, MTT, mean ± SD of three independent experiments. On the procedure: as §1, §2, §3, §4, §5, §6, §7
The test system of assay [3] is Raji (Burkitt lymphoma) cells. The experiment in a line: MTT antiproliferative assay, Raji. Format: cell-based, human. Particulars: Homo sapiens, Raji; 72 h, MTT, mean ± SD of three independent experiments. On the procedure:
as §1, §2, §3, §4, §5, §6, §7

Assay [4] has as its system CaCo-2 (human colorectal adenocarcinoma) cells. The experiment in a line: MTT antiproliferative assay, CaCo-2. It counts as cell-based. To be noted: 72 h, mean ± SD of three independent experiments. As to the method:
as §1, §2, §3, §4, §5, §6, §7

Assay [5] concerns MCF-7 (human breast adenocarcinoma) cells. The experiment in a line: MTT antiproliferative assay, MCF-7. Format: cell-based. To be noted: MCF7, 72 h, mean ± SD of three independent experiments. As to the method:
as §1, §2, §3, §4, §5, §6, §7

Assay [6] concerns HeLa (human cervical adenocarcinoma) cells. The experiment in a line: MTT antiproliferative assay, HeLa. It counts as cell-based. Particulars: 72 h, mean ± SD of three independent experiments. On the procedure:
as §1, §2, §3, §4, §5, §6, §7

The subject of assay [7] is MDCK1 (Madine–Darby canine kidney) cells. The experiment in a line: MTT antiproliferative assay, MDCK1. To be noted: mean ± SD of three independent experiments. It counts as cell-based. As to the method: as §1, §2, §3, §4, §5, §6, §7
Assay [8] relates to CCRF-CEM (human acute lymphoblastic leukemia) cells. The experiment in a line: MTT antiproliferative assay, CCRF-CEM. It counts as cell-based. To be noted: Homo sapiens, CCRF-CEM; 72 h, MTT, mean ± SD of three independent experiments. On the procedure:
as §1, §2, §3, §4, §5, §6, §7

The test system of assay [9] is normal (MDCK1) and tumor cell lines. The experiment in a line: MTT antiproliferative assay, ranges stated over several cell lines. Format: cell-based. As to the method: as §1, §2, §3, §4, §5, §6, §7
Where [10] appears, read: Canis lupus familiaris, MDCK1, 72 h.

Counter-ions that a name gives are not always drawn. Some results are limits rather than exact numbers.

Regarding `O=c1[nH]cc(F)c(=O)[nH]1` [Compound 5-FU, 5-Fluorouracil, reference compound], the GI50 was 76.3 ± 0.5 µM in [1]; greater than 100 µM in assay [2]; greater than 100 µM in [3]; 5.9 ± 0.7 µM in [4]; 30.2 ± 4.7 µM in [5]; 8.2 ± 1.9 µM in [6]. The GI50 in [7] (setting [10]) is 74 ± 3.1 µM; in assay [8] it was greater than 50 µM.
As to `N=C(N)c1ccc2[nH]c(-c3cccc(Nc4ccnc5cc(Cl)ccc45)c3)nc2c1` [Compound 5a, 2-(3-(7-chloroquinolin-4-ylamino)phenyl)-1H-benzo[d]imidazole-5-carboximidamide trihydrochloride], the 50% growth inhibitory concentration (GI50) in [1], in assay [2], in [3], in assay [4], in [5] and in assay [6] was greater than 100 µM in each case. For the same compound, the GI50 in assay [7] (setting [10]) and in assay [8] was greater than 100 µM each time.
As to `CC(C)NC(=N)c1ccc2[nH]c(-c3cccc(Nc4ccnc5cc(Cl)ccc45)c3)nc2c1` [Compound 5b, 2-(3-(7-chloroquinolin-4-ylamino)phenyl)-N-isopropyl-1H-benzo[d]imidazole-5-carboximidamide trihydrochloride], the 50% growth inhibitory concentration (GI50) in assay [1] is greater than 100 µM; in assay [2] it was 41.8 ± 8.2 µM; in [3], greater than 100 µM; in [4], greater than 100 µM; in [5], greater than 100 µM; in assay [6] it was greater than 100 µM. Further, the 50% growth inhibitory concentration (GI50) in assay [7] (setting [10]) and in assay [8] was greater than 100 µM in each case.
Take `Clc1ccc2c(Nc3cccc(-c4nc5cc(C6=NCCN6)ccc5[nH]4)c3)ccnc2c1` [Compound 5c, 7-chloro-N-(3-(5-(4,5-dihydro-1H-imidazol-2-yl)-1H-benzo[d]imidazol-2-yl)phenyl)quinolin-4-amine trihydrochloride]: the GI50 in assay [1] is greater than 100 µM; in assay [2], 66.2 ± 14.6 µM; in assay [3], greater than 100 µM; in [4], greater than 100 µM; in [5], greater than 100 µM; in assay [6], greater than 100 µM. In addition, the 50% growth inhibitory concentration (GI50) in assay [7] (setting [10]) and in assay [8] was greater than 100 µM throughout.
In the case of `Clc1ccc2[nH]c(-c3cccc(Nc4ccnc5cc(Cl)ccc45)c3)nc2c1` [Compound 5e, 7-chloro-N-(3-(5-chloro-1H-benzo[d]imidazol-2-yl)phenyl)quinolin-4-amine], the concentration for 50% growth inhibition (GI50) in assay [1] was determined as 2.1 ± 0.9 µM; in assay [2], 6.7 ± 0.5 µM; in [3] it was 5.4 ± 2 µM; in assay [4], 1.1 ± 0.1 µM; in assay [5], 11.1 ± 1.6 µM; in [6] it was 11.8 ± 1.2 µM. Also, the GI50 is 11.4 ± 6.2 µM in assay [7] (72 h); 11.4 to 20.4 µM in assay [7] (setting [10]); 15.6 ± 3.4 µM in assay [8]; 0.4 to 15.6 µM in assay [9] (MDCK1, range over tumor cell lines, read-out: GI50 range, tumor cell lines). Further, the “GI50 / inhibitory potential, normal and tumor cells” value in [9] (over all tested cell lines) was “strong antiproliferative activity”.
Take `N=C(N)c1ccc2[nH]c(-c3ccc(N4CCN(c5ccnc6cc(Cl)ccc56)CC4)cc3)nc2c1` [Compound 8a, 2-(4-(4-(7-chloroquinolin-4-yl)piperazin-1-yl)phenyl)-1H-benzo[d]imidazole-5-carboxamidine dihydrochloride]: the 50% growth inhibitory concentration (GI50) was greater than 100 µM in assay [1]; 20.2 ± 6.1 µM in [2]; 37.7 ± 8.6 µM in assay [3]; greater than 100 µM in assay [4]; 20.7 ± 8.6 µM in assay [5]; 36.3 ± 9.6 µM in [6]. The GI50 in assay [7] (setting [10]) worked out at 42.7 ± 10.8 µM; in assay [8] it was 32.1 ± 3.8 µM.
In the case of `CC(C)NC(=N)c1ccc2[nH]c(-c3ccc(N4CCN(c5ccnc6cc(Cl)ccc56)CC4)cc3)nc2c1` [Compound 8b, 2-(4-(4-(7-chloroquinolin-4-yl)piperazin-1-yl)phenyl)-N-isopropyl-1H-benzo[d]imidazole-5-carboxamidine dihydrochloride], the GI50 is greater than 100 µM in assay [1]; 26.2 ± 1.6 µM in assay [2]; 42.9 ± 8.8 µM in assay [3]; 100 µM in assay [4]; 30.9 ± 2.7 µM in assay [5]; 21 ± 1.9 µM in assay [6]. Further, the values for the 50% growth inhibitory concentration (GI50) in [7] (setting [10]) and in assay [8] were 58.8 ± 9.8 µM and 39.6 ± 9.2 µM, respectively.
With `Clc1ccc2c(N3CCN(c4ccc(-c5nc6cc(C7=NCCN7)ccc6[nH]5)cc4)CC3)ccnc2c1` [Compound 8c, 7-chloro-4-(4-(4-(5-(4,5-dihydro-1H-imidazol-2-yl)-1H-benzo[d]imidazol-2-yl)phenyl)piperazin-1-yl)quinoline dihydrochloride], the 50% growth inhibitory concentration (GI50) in assay [1] was 71.3 ± 11.4 µM; in assay [2], 27.6 ± 4.7 µM; in [3] it was 43.9 ± 16.2 µM; in assay [4] it was 100 µM; in assay [5] it was 24.8 ± 2.2 µM; in [6], 41.8 ± 8.4 µM. The GI50 in assay [7] (setting [10]) turned out to be 30.1 ± 5 µM; in assay [8], 25.4 ± 11.5 µM.
With `N=C(N)c1ccc2[nH]c(-c3ccc(C(=O)NCCNc4ccnc5cc(Cl)ccc45)cc3)nc2c1` [Compound 12a, 4-(5-carbamimidoyl-1H-benzo[d]imidazol-2-yl)-N-(2-(7-chloroquinolin-4-ylamino)ethyl)benzamide trihydrochloride], the concentration for 50% growth inhibition (GI50) in assay [1] was greater than 100 µM; in assay [2] it was 4.1 ± 2 µM; in assay [3] it was 8.9 ± 3.3 µM; in [4] it was 24.7 ± 6.2 µM; in assay [5], 39.1 ± 5.6 µM; in [6] it was 11.1 ± 3.8 µM. Moreover, the concentration for 50% growth inhibition (GI50) in assay [7] (setting [10]) stood at 21.6 ± 3.2 µM; in assay [8] it was 20 ± 6.8 µM.
Regarding `CC(C)NC(=N)c1ccc2[nH]c(-c3ccc(C(=O)NCCNc4ccnc5cc(Cl)ccc45)cc3)nc2c1` [Compound 12b, 4-(5-(N-isopropylcarbamimidoyl)-1H-benzo[d]imidazol-2-yl)-N-(2-(7-chloroquinolin-4-ylamino)ethyl)benzamide trihydrochloride], the GI50 in assay [1] is 100 µM; in assay [2], 5.6 ± 2.7 µM; in [3], 12.8 ± 3.7 µM; in assay [4], 38.7 ± 12.4 µM; in assay [5], 100 µM; in [6], 100 µM. Also, the figures for the concentration for 50% growth inhibition (GI50) in assay [7] (setting [10]) and in assay [8] were 42.9 ± 5.1 µM and 43.3 ± 17.5 µM, respectively.
In the case of `O=C(NCCNc1ccnc2cc(Cl)ccc12)c1ccc(-c2nc3cc(C4=NCCN4)ccc3[nH]2)cc1` [Compound 12c, N-(2-(7-chloroquinolin-4-ylamino)ethyl)-4-(5-(4,5-dihydro-1H-imidazol-2-yl)-1H-benzo[d]imidazol-2-yl)benzamide trihydrochloride], the 50% growth inhibitory concentration (GI50) in assay [1] was greater than 100 µM; in assay [2], 4.4 ± 1 µM; in [3], 20.8 ± 1.8 µM; in assay [4], 52 ± 9.1 µM; in assay [5], 100 µM; in [6], 33.2 ± 5.8 µM. Besides, the concentration for 50% growth inhibition (GI50) in assay [7] (setting [10]) was found to be 39.6 ± 2.2 µM; in [8], 56.3 ± 9 µM.

Values taken from paper PMC9866588, “Novel 7-Chloro-4-aminoquinoline-benzimidazole Hybrids as Inhibitors of Cancer Cells Growth: Synthesis, Antiproliferative Activity, in Silico ADME Predictions, and Docking” (Molecules, 2023).
